In patent US12275684B2, “Methods for making and using endoxifen” (Atossa Therapeutics, Inc., priority 2017, dated 2025):
Like-named read-outs stand apart in the source and are kept apart here.

Assay: Placebo controlled, dose escalation pharmacokinetic study of oral (Z)-Endoxifen capsules (serum endoxifen; incl. accumulation ratios and dose linearity)
Format: in vivo, human
Parameters: Serum concentration, Maximum / Serum concentration, GeoMean / Serum concentration, Mean / Serum concentration, Median / terminal rate constant: unit not given here
Conditions: for Serum concentration, GeoMean / Serum concentration, Maximum / Serum concentration, Mean / Serum concentration, Median / Serum concentration, Minimum: 2 mg (n = 6)
Source text: An objective of the study was to assess the safety and tolerability of oral (Z)-Endoxifen when administered […] orally as a capsule to healthy female volunteers. A secondary objective was to assess the pharmacokinetics of multiple doses of oral (Z)-Endoxifen in the subjects.
Generally, healthy female volunteers aged ≥18 years and ≤65 years were enrolled. 24 participants were enrolled in 3 cohorts and will be administered study drug orally. Three dose levels of orally administered (Z)-Endoxifen were investigated in 3 cohorts. In each cohort participants were randomized to receive an oral (Z)-Endoxifen or placebo in a blinded fashion. Enteric-resistant capsules used in the study were designed as delayed release capsules to resist rupture for at least 30 minutes, but typically, for about 2 hours, under gastric conditions and then open fully in intestinal fluid (DRCaps; Capsugel, a Lonza Company, USA). Enteric-resistant (Swedish Orange size Zero (0); Capsugel, USA) DRCaps capsules manually filled with 1, 2 or 4 mg of (Z)-endoxifen neat in compliance with GMP requirements were used. Placebo capsules contained microcrystalline cellulose an inert common capsule and tablet excipient.
Each cohort enrolled 8 participants, with 6 participants receiving (Z)-Endoxifen 1 mg capsules orally at 1 mg (Cohort 1), 2 mg (Cohort 2) or 4 mg (Cohort 3) doses and 2 participants receiving matching placebo capsules. In Cohort 1 (Dose Level=1 mg) two participants (sentinels) were dosed 24 hours prior to the remaining participants. One sentinel was dosed with (Z)-Endoxifen and the other with placebo. The remaining six participants in Cohort 1 were dosed as no safety concerns were identified in the sentinel participants. The non-sentinel participants in Cohort 1 were admitted to the clinical research facility at least one day later than the sentinels. There were no sentinels in Cohorts 2 and 3.
Participant engagement in this study was for a period of 56 days. These included a 28 day screening period, and a 7 day post treatment period for Pharmacokinetic (PK) sampling. There were two confinement periods, one at the beginning and one at the end of the dosing periods. Participants were confined to the clinical facility on Days-1 through to Day 2 and Days 21 and 22. If participants were to experience any clinically significant adverse events during the study, they would have been required to remain in the clinical facility for further observation at the discretion of the Principal Investigator (PI).
Healthy female volunteers were screened within 28 days prior to commencement of dosing. Participants were admitted to the clinical facility on Day-1 for up to 3 days. The first dose of (Z)-Endoxifen or placebo capsules was administered on Day 1. Following completion of all safety assessments and sampling for PK analyses, participants were discharged from the clinical facility on Day 2. The first dose on Day 1 was followed by a 6-day treatment free period (Days 2-7). Each participant returned to the clinical facility for PK blood draws and safety assessments during the treatment free period on study Days 4 and 6. On Day 8 participants commenced daily administration of (Z)-Endoxifen capsules or placebo capsules for 14 consecutive days (Days 8-21). Participants were supplied with study drug capsules and asked to self administer daily. Participants visited the clinical facility on Days 11, 14 and 17, prior to dose administration, for PK blood draws and safety assessments. On the morning of Day 21 each participant returned to the clinical facility prior to dose administration and were confined to the facility until Day 22 to allow for the collection of PK blood draws and safety assessments. The Day 21 dose was the last administration of study drug. Participants were discharged from the clinical facility on Day 22 and returned for PK blood draws and safety assessments on study Days 24, 26, and 28. […]

concentration at 10 h (1 mg, Day 1 Pre-dose, read-out: Serum concentration, GeoMean): 2.68 nM
concentration at 10 h (1 mg, Day 1 Pre-dose, read-out: Serum concentration, Max): 2.68 nM
concentration at 10 h (1 mg, Day 1 Pre-dose, read-out: Serum concentration, Mean): 2.68 nM
concentration at 10 h (1 mg, Day 1 Pre-dose, read-out: Serum concentration, Median): 2.68 nM
concentration at 10 h (1 mg, Day 1 Pre-dose, read-out: Serum concentration, Min): 2.68 nM
concentration at 10 h (1 mg, Day 8 Pre-dose, read-out: Serum concentration, GeoMean): 2.68 nM
concentration at 10 h (1 mg, Day 8 Pre-dose, read-out: Serum concentration, Max): 2.68 nM
concentration at 10 h (1 mg, Day 8 Pre-dose, read-out: Serum concentration, Mean): 2.68 nM
concentration at 10 h (1 mg, Day 8 Pre-dose, read-out: Serum concentration, Median): 2.68 nM
concentration at 10 h (1 mg, Day 8 Pre-dose, read-out: Serum concentration, Min): 2.68 nM
concentration at 10 h (1 mg, Day 11 Pre-Dose, read-out: Serum concentration, GeoMean): 37.7 nM
concentration at 10 h (1 mg, Day 11 Pre-Dose, read-out: Serum concentration, Max): 45.5 nM
concentration at 10 h (1 mg, Day 11 Pre-Dose, read-out: Serum concentration, Mean): 38.5 nM
concentration at 10 h (1 mg, Day 11 Pre-Dose, read-out: Serum concentration, Median): 42.8 nM
concentration at 10 h (1 mg, Day 11 Pre-Dose, read-out: Serum concentration, Min): 26.8 nM
concentration at 10 h (1 mg, Day 14 Pre-dose, read-out: Serum concentration, GeoMean): 37.6 nM
concentration at 10 h (1 mg, Day 14 Pre-dose, read-out: Serum concentration, Max): 75.0 nM
concentration at 10 h (1 mg, Day 14 Pre-dose, read-out: Serum concentration, Mean): 43.4 nM
concentration at 10 h (1 mg, Day 14 Pre-dose, read-out: Serum concentration, Median): 40.2 nM
concentration at 10 h (1 mg, Day 14 Pre-dose, read-out: Serum concentration, Min): 13.4 nM
concentration at 10 h (1 mg, Day 17 Pre-Dose, read-out: Serum concentration, GeoMean): 38.5 nM
concentration at 10 h (1 mg, Day 17 Pre-Dose, read-out: Serum concentration, Max): 64.2 nM
concentration at 10 h (1 mg, Day 17 Pre-Dose, read-out: Serum concentration, Mean): 43.4 nM
concentration at 10 h (1 mg, Day 17 Pre-Dose, read-out: Serum concentration, Median): 45.5 nM
concentration at 10 h (1 mg, Day 17 Pre-Dose, read-out: Serum concentration, Min): 13.4 nM
Serum concentration, GeoMean (Day 1 Pre-dose): 1.00
Serum concentration, Maximum (Day 1 Pre-dose): 1.00
Serum concentration, Mean (Day 1 Pre-dose): 0.17
Serum concentration, Median (Day 1 Pre-dose): 0.00
Serum concentration, Minimum (Day 1 Pre-dose): 0.00
Serum concentration, GeoMean (Day 4 Hr 72): 5.47
Serum concentration, Maximum (Day 4 Hr 72): 8.00
Serum concentration, Mean (Day 4 Hr 72): 5.67
Serum concentration, Median (Day 4 Hr 72): 5.50
Serum concentration, GeoMean (Day 6 Hr 120): 2.55
Serum concentration, Maximum (Day 6 Hr 120): 4.00
Serum concentration, Mean (Day 6 Hr 120): 2.80
Serum concentration, Median (Day 6 Hr 120): 3.00
Serum concentration, GeoMean (Day 8 Pre-dose): 1.00
Serum concentration, Maximum (Day 8 Pre-dose): 1.00
Serum concentration, Mean (Day 8 Pre-dose): 0.83
Serum concentration, Median (Day 8 Pre-dose): 1.00
Serum concentration, GeoMean (Day 11 Pre-Dose): 22.6
Serum concentration, Maximum (Day 11 Pre-Dose): 28.0
Serum concentration, Mean (Day 11 Pre-Dose): 22.8
Serum concentration, Median (Day 11 Pre-Dose): 22.5
Serum concentration, GeoMean (Day 14 Pre-dose): 28.9
Serum concentration, Maximum (Day 14 Pre-dose): 37.0
Serum concentration, Mean (Day 14 Pre-dose): 29.2
Serum concentration, Median (Day 14 Pre-dose): 28.5
Serum concentration, GeoMean (Day 17 Pre-Dose): 31.5
Serum concentration, Maximum (Day 17 Pre-Dose): 47.0
Serum concentration, Mean (Day 17 Pre-Dose): 32.2
Serum concentration, Median (Day 17 Pre-Dose): 29.5
Serum concentration, Maximum (Day 1 hr 0.5): 0.00
Serum concentration, Mean (Day 1 hr 0.5): 0.00
Serum concentration, Median (Day 1 hr 0.5): 0.00
Serum concentration, GeoMean (Day 1 hr 1): 2.35
Serum concentration, Maximum (Day 1 hr 1): 4.00
Serum concentration, Mean (Day 1 hr 1): 2.17
Serum concentration, Median (Day 1 hr 1): 2.50
Serum concentration, GeoMean (Day 1 hr 2): 9.55
Serum concentration, Maximum (Day 1 hr 2): 16.0
Serum concentration, Mean (Day 1 hr 2): 10.2
Serum concentration, Median (Day 1 hr 2): 10.0
Serum concentration, GeoMean (Day 1 hr 3): 14.3
Serum concentration, Maximum (Day 1 hr 3): 17.0
Serum concentration, Mean (Day 1 hr 3): 14.5
Serum concentration, Median (Day 1 hr 3): 14.5
Serum concentration, GeoMean (Day 1 hr 4): 16.6
Serum concentration, Maximum (Day 1 hr 4): 22.0
Serum concentration, Mean (Day 1 hr 4): 17.2
Serum concentration, Median (Day 1 hr 4): 17.5
Serum concentration, GeoMean (Day 1 hr 5): 16.8
Serum concentration, Maximum (Day 1 hr 5): 22.0
Serum concentration, Mean (Day 1 hr 5): 17.2
Serum concentration, Median (Day 1 hr 5): 17.0
Serum concentration, GeoMean (Day 1 hr 8): 13.8
Serum concentration, Maximum (Day 1 hr 8): 19.0
Serum concentration, Mean (Day 1 hr 8): 14.3
Serum concentration, Median (Day 1 hr 8): 14.5
Serum concentration, GeoMean (Day 1 hr 10): 14.2
Serum concentration, Maximum (Day 1 hr 10): 19.0
Serum concentration, Mean (Day 1 hr 10): 14.5
Serum concentration, Median (Day 1 hr 10): 14.5
Serum concentration, GeoMean (Day 1 hr 12): 14.1
Serum concentration, Maximum (Day 1 hr 12): 18.0
Serum concentration, Mean (Day 1 hr 12): 14.2
Serum concentration, Median (Day 1 hr 12): 14.0
Serum concentration, Minimum (Day 1 hr 12): 12.0
Serum concentration, GeoMean (Day 1 hr 24): 10.1
Serum concentration, Maximum (Day 1 hr 24): 13.0
Serum concentration, Mean (Day 1 hr 24): 10.3
Serum concentration, Median (Day 1 hr 24): 10.5
AUC0-inf, Max (Day 1, 1 mg, N = 5): 739 ng·h/mL
AUC0-inf, Min (Day 1, 1 mg, N = 5): 441 ng·h/mL
AUC24hr, Max (Day 1, 1 mg, N = 5): 183 ng·h/mL
AUC24hr, Min (Day 1, 1 mg, N = 5): 102 ng·h/mL
AUCTlast, Max (Day 1, 1 mg, N = 5): 582 ng·h/mL
AUCTlast, Min (Day 1, 1 mg, N = 5): 367 ng·h/mL
CL/F, GeoMean (Day 1, 1 mg, N = 5): 1.79 L/h
CL/F, Max (Day 1, 1 mg, N = 5): 2.27 L/h
CL/F, Mean (Day 1, 1 mg, N = 5): 1.82 L/h
CL/F, Median (Day 1, 1 mg, N = 5): 1.87 L/h
Structure (SMILES): CC/C(=C(\c1ccc(O)cc1)c1ccc(OCCNC)cc1)c1ccccc1 [(Z)-Endoxifen, (Z)-4-(1-(4-(2-(methylamino)ethoxy)phenyl)-2-phenylbut-1-enyl) phenol]
